{
  "source": "patent US6358885B1",
  "about": "“Substituted phenylheterocyclic herbicides” (Mississippi State University, priority 1992, dated 2002)",
  "assay_in_all_cases": "Test G preemergence/postemergence greenhouse plant response rating 0 to 100",
  "key": {"itchgrass": {"system": "itchgrass", "format": "in vivo, Rottboellia exaltata", "conditions": "0 to 100 scale", "outline": "(§1)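 Greenhouse pots, one species each; non-phytotoxic solvent vehicle. Read-out: visual injury vs untreated, 13–21 DAT. Dash denotes no result.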"}, "johnsongrass": {"system": "johnsongrass", "format": "in vivo, Sorghum halepense", "conditions": "0 to 100 scale", "outline": "as §1"}, "large crabgrass": {"system": "large crabgrass", "format": "in vivo, Digitaria sanguinalis", "conditions": "0 to 100 scale", "outline": "as §1"}, "smooth crabgrass": {"system": "smooth crabgrass", "format": "in vivo, Digitaria ischaemum", "conditions": "0 to 100 scale", "outline": "as §1"}, "yellow nutsedge": {"system": "yellow nutsedge", "format": "in vivo, Cyperus esculentus", "conditions": "Rate 125 g/ha, 0 to 100 scale", "outline": "as §1"}, "guineagrass": {"system": "guineagrass", "format": "in vivo, Panicum maximum", "conditions": "0 to 100 scale", "outline": "as §1"}, "pitted morningglory": {"system": "pitted morningglory", "format": "in vivo, Ipomoea lacunosa", "conditions": "0 to 100 scale", "outline": "as §1"}, "goosegrass": {"system": "goosegrass", "format": "in vivo, Eleusine indica", "conditions": "0 to 100 scale", "outline": "as §1"}, "common purslane": {"system": "common purslane", "format": "in vivo, Portulaca oleracea", "conditions": "0 to 100 scale", "outline": "as §1"}, "bermudagrass": {"system": "bermudagrass", "format": "in vivo, Cynodon dactylon", "conditions": "0 to 100 scale", "outline": "as §1"}, "dallisgrass": {"system": "dallisgrass", "format": "in vivo, Paspalum dilatatum", "conditions": "0 to 100 scale", "outline": "as §1"}, "common ragweed": {"system": "common ragweed", "format": "in vivo, Ambrosia elatior", "conditions": "0 to 100 scale", "outline": "as §1"}, "purple nutsedge": {"system": "purple nutsedge", "format": "in vivo, Cyperus rotundus", "conditions": "Rate 125 g/ha, 0 to 100 scale", "outline": "as §1"}, "annual bluegrass": {"system": "annual bluegrass", "format": "in vivo, Poa annua", "conditions": "0 to 100 scale", "outline": "as §1"}, "alfalfa": {"system": "alfalfa", "format": "in vivo, Medicago ativa", "conditions": "0 to 100 scale", "outline": "as §1"}, "sandbur": {"system": "sandbur", "format": "in vivo, Cenchrus echinatus", "conditions": "0 to 100 scale", "outline": "as §1"}, "peanut": {"system": "peanut", "format": "in vivo, Arachis hypoagaea", "conditions": "0 to 100 scale", "outline": "as §1"}, "broadleaf signalgrass": {"system": "broadleaf signalgrass", "format": "in vivo, Brachiaria plantaginea", "conditions": "0 to 100 scale", "outline": "as §1"}},
  "data": [
    {"smiles": "CCCN1C(=O)COc2cc(F)c(-c3nn4c(c3Cl)CCCC4)cc21", "note": "[Compound 32]", "values": [
      {"measurement": "Plant response rating, Itchgrass", "setting": "itchgrass; POSTEMERGENCE, Rate 125 g/ha", "value": 0},
      {"measurement": "Plant response rating, Itchgrass", "setting": "itchgrass; POSTEMERGENCE, Rate 250 g/ha", "value": 0},
      {"measurement": "Plant response rating, Itchgrass", "setting": "itchgrass; PREEMERGENCE, Rate 125 g/ha", "value": 0},
      {"measurement": "Plant response rating, Itchgrass", "setting": "itchgrass; PREEMERGENCE, Rate 250 g/ha", "value": 0},
      {"measurement": "Plant response rating, Johnsongrass", "setting": "johnsongrass; POSTEMERGENCE, Rate 125 g/ha", "value": 0},
      {"measurement": "Plant response rating, Johnsongrass", "setting": "johnsongrass; POSTEMERGENCE, Rate 250 g/ha", "value": 0},
      {"measurement": "Plant response rating, Johnsongrass", "setting": "johnsongrass; PREEMERGENCE, Rate 125 g/ha", "value": 0},
      {"measurement": "Plant response rating, Johnsongrass", "setting": "johnsongrass; PREEMERGENCE, Rate 250 g/ha", "value": 0},
      {"measurement": "Plant response rating, Large Crabgrass", "setting": "large crabgrass; POSTEMERGENCE, Rate 125 g/ha", "value": 0},
      {"measurement": "Plant response rating, Large Crabgrass", "setting": "large crabgrass; POSTEMERGENCE, Rate 250 g/ha", "value": 0},
      {"measurement": "Plant response rating, Large Crabgrass", "setting": "large crabgrass; PREEMERGENCE, Rate 125 g/ha", "value": 0},
      {"measurement": "Plant response rating, Large Crabgrass", "setting": "large crabgrass; PREEMERGENCE, Rate 250 g/ha", "value": 0},
      {"measurement": "Plant response rating, Smooth Crabgras", "setting": "smooth crabgrass; POSTEMERGENCE, Rate 125 g/ha", "value": 0},
      {"measurement": "Plant response rating, Smooth Crabgras", "setting": "smooth crabgrass; POSTEMERGENCE, Rate 250 g/ha", "value": 0},
      {"measurement": "Plant response rating, Smooth Crabgras", "setting": "smooth crabgrass; PREEMERGENCE, Rate 125 g/ha", "value": 0},
      {"measurement": "Plant response rating, Smooth Crabgras", "setting": "smooth crabgrass; PREEMERGENCE, Rate 250 g/ha", "value": 0},
      {"measurement": "Plant response rating, Yellow Nutsedge", "setting": "yellow nutsedge; POSTEMERGENCE", "value": 0},
      {"measurement": "Plant response rating, Yellow Nutsedge", "setting": "yellow nutsedge; PREEMERGENCE", "value": 0},
      {"measurement": "Plant response rating, Guineagrass", "setting": "guineagrass; POSTEMERGENCE, Rate 125 g/ha", "value": 0},
      {"measurement": "Plant response rating, Guineagrass", "setting": "guineagrass; POSTEMERGENCE, Rate 250 g/ha", "value": 0},
      {"measurement": "Plant response rating, Guineagrass", "setting": "guineagrass; PREEMERGENCE, Rate 125 g/ha", "value": 0},
      {"measurement": "Plant response rating, Guineagrass", "setting": "guineagrass; PREEMERGENCE, Rate 250 g/ha", "value": 0},
      {"measurement": "Plant response rating, Pit Morninglory", "setting": "pitted morningglory; POSTEMERGENCE, Rate 125 g/ha", "value": 70},
      {"measurement": "Plant response rating, Pit Morninglory", "setting": "pitted morningglory; POSTEMERGENCE, Rate 250 g/ha", "value": 30},
      {"measurement": "Plant response rating, Pit Morninglory", "setting": "pitted morningglory; PREEMERGENCE, Rate 125 g/ha", "value": 0},
      {"measurement": "Plant response rating, Pit Morninglory", "setting": "pitted morningglory; PREEMERGENCE, Rate 250 g/ha", "value": 0},
      {"measurement": "Plant response rating, Goosegrass", "setting": "goosegrass; POSTEMERGENCE, Rate 125 g/ha", "value": 0},
      {"measurement": "Plant response rating, Goosegrass", "setting": "goosegrass; POSTEMERGENCE, Rate 250 g/ha", "value": 0},
      {"measurement": "Plant response rating, Goosegrass", "setting": "goosegrass; PREEMERGENCE, Rate 125 g/ha", "value": 0},
      {"measurement": "Plant response rating, Goosegrass", "setting": "goosegrass; PREEMERGENCE, Rate 250 g/ha", "value": 0},
      {"measurement": "Plant response rating, Cmn Purslane", "setting": "common purslane; POSTEMERGENCE, Rate 125 g/ha", "value": 100},
      {"measurement": "Plant response rating, Cmn Purslane", "setting": "common purslane; POSTEMERGENCE, Rate 250 g/ha", "value": 80},
      {"measurement": "Plant response rating, Cmn Purslane", "setting": "common purslane; PREEMERGENCE, Rate 125 g/ha", "value": 0},
      {"measurement": "Plant response rating, Cmn Purslane", "setting": "common purslane; PREEMERGENCE, Rate 250 g/ha", "value": 100},
      {"measurement": "Plant response rating, Bermudagrass", "setting": "bermudagrass; POSTEMERGENCE, Rate 125 g/ha", "value": 0},
      {"measurement": "Plant response rating, Bermudagrass", "setting": "bermudagrass; POSTEMERGENCE, Rate 250 g/ha", "value": 0},
      {"measurement": "Plant response rating, Bermudagrass", "setting": "bermudagrass; PREEMERGENCE, Rate 125 g/ha", "value": 0},
      {"measurement": "Plant response rating, Bermudagrass", "setting": "bermudagrass; PREEMERGENCE, Rate 250 g/ha", "value": 0},
      {"measurement": "Plant response rating, Dallisgrass", "setting": "dallisgrass; POSTEMERGENCE, Rate 125 g/ha", "value": 0},
      {"measurement": "Plant response rating, Dallisgrass", "setting": "dallisgrass; POSTEMERGENCE, Rate 250 g/ha", "value": 0},
      {"measurement": "Plant response rating, Dallisgrass", "setting": "dallisgrass; PREEMERGENCE, Rate 125 g/ha", "value": 0},
      {"measurement": "Plant response rating, Dallisgrass", "setting": "dallisgrass; PREEMERGENCE, Rate 250 g/ha", "value": 0},
      {"measurement": "Plant response rating, Cmn Ragweed", "setting": "common ragweed; POSTEMERGENCE, Rate 125 g/ha", "value": 100},
      {"measurement": "Plant response rating, Cmn Ragweed", "setting": "common ragweed; POSTEMERGENCE, Rate 250 g/ha", "value": 60},
      {"measurement": "Plant response rating, Cmn Ragweed", "setting": "common ragweed; PREEMERGENCE, Rate 125 g/ha", "value": 0},
      {"measurement": "Plant response rating, Cmn Ragweed", "setting": "common ragweed; PREEMERGENCE, Rate 250 g/ha", "value": 0},
      {"measurement": "Plant response rating, Purple Nutsedge", "setting": "purple nutsedge; POSTEMERGENCE", "value": 10},
      {"measurement": "Plant response rating, Purple Nutsedge", "setting": "purple nutsedge; PREEMERGENCE", "value": 0},
      {"measurement": "Plant response rating, Ann Bluegrass", "setting": "annual bluegrass; POSTEMERGENCE, Rate 125 g/ha", "value": 0},
      {"measurement": "Plant response rating, Ann Bluegrass", "setting": "annual bluegrass; POSTEMERGENCE, Rate 250 g/ha", "value": 0},
      {"measurement": "Plant response rating, Ann Bluegrass", "setting": "annual bluegrass; PREEMERGENCE, Rate 125 g/ha", "value": 0},
      {"measurement": "Plant response rating, Ann Bluegrass", "setting": "annual bluegrass; PREEMERGENCE, Rate 250 g/ha", "value": 0},
      {"measurement": "Plant response rating, Alfalfa Var.", "setting": "alfalfa; POSTEMERGENCE, Rate 125 g/ha", "value": 0},
      {"measurement": "Plant response rating, Alfalfa Var.", "setting": "alfalfa; POSTEMERGENCE, Rate 250 g/ha", "value": 0},
      {"measurement": "Plant response rating, Alfalfa Var.", "setting": "alfalfa; PREEMERGENCE, Rate 125 g/ha", "value": 0},
      {"measurement": "Plant response rating, Alfalfa Var.", "setting": "alfalfa; PREEMERGENCE, Rate 250 g/ha", "value": 0},
      {"measurement": "Plant response rating, S. Sandbur", "setting": "sandbur; POSTEMERGENCE, Rate 125 g/ha", "value": 0},
      {"measurement": "Plant response rating, S. Sandbur", "setting": "sandbur; POSTEMERGENCE, Rate 250 g/ha", "value": 0},
      {"measurement": "Plant response rating, S. Sandbur", "setting": "sandbur; PREEMERGENCE, Rate 125 g/ha", "value": 0},
      {"measurement": "Plant response rating, S. Sandbur", "setting": "sandbur; PREEMERGENCE, Rate 250 g/ha", "value": 0},
      {"measurement": "Plant response rating, Peanuts", "setting": "peanut; POSTEMERGENCE, Rate 125 g/ha", "value": 0},
      {"measurement": "Plant response rating, Peanuts", "setting": "peanut; POSTEMERGENCE, Rate 250 g/ha", "value": 0},
      {"measurement": "Plant response rating, Peanuts", "setting": "peanut; PREEMERGENCE, Rate 125 g/ha", "value": 0},
      {"measurement": "Plant response rating, Peanuts", "setting": "peanut; PREEMERGENCE, Rate 250 g/ha", "value": 0},
      {"measurement": "Plant response rating, Brdlf Sgnlgrass", "setting": "broadleaf signalgrass; POSTEMERGENCE, Rate 125 g/ha", "value": 0},
      {"measurement": "Plant response rating, Brdlf Sgnlgrass", "setting": "broadleaf signalgrass; POSTEMERGENCE, Rate 250 g/ha", "value": 0},
      {"measurement": "Plant response rating, Brdlf Sgnlgrass", "setting": "broadleaf signalgrass; PREEMERGENCE, Rate 125 g/ha", "value": 0},
      {"measurement": "Plant response rating, Brdlf Sgnlgrass", "setting": "broadleaf signalgrass; PREEMERGENCE, Rate 250 g/ha", "value": 0}
    ]}
  ]
}
